Results on 2 substances are retold here after publication PMC13233288, “Spider venom peptides Ht1a and Gg1a are toxic to honeybee parasite Varroa destructor by topical application” (npj Drug Discovery, 2026).

“Also recorded” adds a separate entry of the source. No end group written: not given here.

One series deals with V. destructor mites. Briefly: Topical application of synthetic peptides and oxalic acid to V. destructor mites. It is filed as in vivo, Varroa destructor. As to conditions: 0.48 μg/mite in 0.5% Silwet (v/v); for earliest onset of mortality: 2-hourly recording between 0 and 48 h; for survival/mortality of V. destructor: n = 5 mites per group, up to 48 h, vs 0.5% Silwet control, two-way ANOVA, Dunnett. The method, then:
An outline of the project discovery pipeline is presented in Supplementary Fig. 1. To identify varroacidal venom peptides, we screened venoms for activity against V. destructor by topical application. Topical tests were performed in several stages. First, whole venom was tested to determine mortality for V. destructor. Hit venoms were then subjected to several fractionation steps to isolate the active compounds. For the initial venom screen, a panel of 50 arthropod venoms (Table 1) were topically applied to V. destructor mites. Venoms were dissolved in 90% acetonitrile (v/v), and a 10 μg venom aliquot was applied per mite (n = 5 mites per venom). The dorsal plate of V. destructor mites (average mass 0.38 mg) was fixed to adhesive tape (ScotchTM 666 3 M; 19 × 32.9 mm, double sided) on microscope slides (ground edges 90° frosted end, 76 × 26 mm). A Nanoject II (Automatic Injector with Glass Capillaries, Drummond Cat.No. 3-000-205 A) was used for topical application of venom and control (90% acetonitrile) solutions. To accelerate solvent evaporation, the total volume of 483 nL was applied in seven aliquots of 69 nL each to the ventral plate of the mites between the posterior pair of legs. Each drop was allowed to dry before applying the next one, with the entire application procedure taking up to 1 h. Mite mortality was determined at various time intervals up to 48 h after the treatment using an Olympus stereomicroscope (SZX10/SZX2 Series). Initially, each mite was examined for movements of the legs, and immobile mites were stimulated with the tip of a wooden toothpick. Detection of static electricity by the mites, a few millimetres before the actual contact with the toothpick, was usually sufficient to trigger movement in mites that were still alive. […] At the later stage of the project, the slides with mites were placed into a self-constructed automated video monitoring system (using a USB camera) that employs an algorithm in OpenCV to subtract images from subsequent frames enabling the detection of changes in pixel intensity due to movements, for example of the extremities. Leg movements were stimulated with an air current applied over the mites at the time of image acquisition to determine mite mortality. The percentage of mite mortality for each venom was calculated at 2, 6 and 24 h, and adjusted by correcting for the mortality of the corresponding control group receiving only 90% acetonitrile.
The same procedure initially used for identifying varroacidal venoms was used for testing the topical activity of sHt1a and sGg1a. The peptides were dissolved in 0.5% Silwet L-77 (v/v), a silicone-based surfactant that is commonly used as a spreading agent for foliar sprays. 0.48 μg of peptide was topically applied to each mite, with n = 5 mites per treatment group. The activity of the sHt1a was confirmed using three cohorts of n = 5 mites, whereas the activity of sGg1a was confirmed using four cohorts of n = 5 mites. As a negative control, an equal volume of 0.5% Silwet (v/v) was topically applied (four cohorts of n = 5 mites), and 3% oxalic acid, a known varroacide used in commercial products[10] was used as positive control (eight cohorts of n = 5 mites). Mite mortality was recorded at 2-hourly intervals between 0 and 48 h after the treatment. For statistical analysis, mite survival data were plotted in Prism 10.0 (GraphPad Software, CA, USA), then a two-way ANOVA followed by Dunnett’s multiple comparisons test was performed, comparing the peptide and oxalic acid treatment against the respective 0.5% Silwet (v/v) control group data.

Another series relates to hNaV1.5. Briefly: Automated whole-cell patch clamp, hNaV1.5 + β1 in HEK 293 cells. It is filed as cell-based, human. The following applies: 3 μM, 50 ms pulse to −20 mV from −90 mV, ECS with 0.1% BSA, at least 2 min. The procedure:
To examine for off-target activity on mammalian ion channels and receptors, we first tested the activity of sHt1a and Gg1a against human NaV channels. Whole-cell patch-clamp recordings were performed on Human Embryonic Kidney (HEK) 293 cells stably expressing human NaV1.4 or NaV1.5 in conjunction with the β1 subunit (SB Drug Discovery, Glasgow, United Kingdom) using a QPatch II automated electrophysiology platform (Sophion Bioscience, Ballerup, Denmark). Whole-cell currents were filtered at 8 kHz and acquired at 25 kHz. The linear leak was corrected by P/4 subtraction (leak potential −90 mV, leak sweep amplitude 10%). Series resistance across recorded cells ranged between 5 and 10 MΩ. The extracellular solution (ECS) consisted of (in mM): 145 NaCl, 4 KCl, 2 CaCl2, 1 MgCl2, 10 HEPES, and 10 glucose, adjusted to pH 7.4 with NaOH and to 305 mOsm/L with sucrose. The intracellular solution (ICS) consisted of (in mM): 140 CsF, 1 EGTA, 5 CsOH, 10 HEPES, and 10 NaCl, adjusted to pH 7.3 with CsOH and 320 mOsm/L with sucrose. Currents were elicited from a holding potential of −90 mV delivered with a 50 ms depolarising pulse to −20 mV every 20 s (0.05 Hz). Peptides were diluted in ECS containing 0.1% BSA and applied to cells for at least 2 min at the concentrations stated. Peak currents were normalised to the buffer control.
(In general: The patch-clamp technique gives a direct electrical read-out from membranes.)

Another series deals with hCaV2.2. Kind of series: FLIPR Ca2+ fluorescence, KCl/CaCl2-stimulated SH-SY5Y cells. The following applies: 10 µM, added 5 min prior to KCl/CaCl2 (90 mM/5 mM). In kind it is cell-based, human. The procedure: (§1) To further test the selectivity of sHt1a and sGg1a, we examined their activity on hNaV1.2/NaV1.7 and hCaV2.2 channels, as well as the hα3β2/4 nicotinic acetylcholine receptor (nAchR), that are endogenously expressed in the neuroblastoma cell line SH-SY5Y using a high-throughput fluorescent assay as previously described. In brief, SH-SY5Y cells were seeded at a density of 40,000 cells/well in black-walled imaging plates (Corning, Lowell, MA, USA), then incubated for 48 h at 37 °C in a 5% humidified CO2 incubator. On the day of the assay, cells were loaded with Calcium 4 No-wash dye (Molecular Devices) by reconstituting the lyophilised dye in physiological salt solution (PSS in mM: 140 NaCl, 11.5 glucose, 5.9 KCl, 1.4 MgCl2, 1.2 NaH2PO4, 5 NaHCO3, 1.8 CaCl2, 10 HEPES, pH 7.4). Cells were incubated with the dye for 30 min at 37 °C in a 5% humidified CO2 incubator. Gg1a and Ht1a (10 µM) were added 5 min prior to stimulation with either veratridine (50 µM, hNaV1.2/NaV1.7 activator), nicotine (30 µM, hα3β2/4 nAchR activator) or KCl/CaCl2 (90 mM/5 mM, CaV1.3/2.2 activator) Fluorescent responses were recorded using a FLIPR^Penta fluorescent plate reader (Molecular Devices) with excitation at 470–495 nm and emission at 515–575 nm.

The test system of series [1] is hα3β2/4 nicotinic acetylcholine receptor (nAchR). Kind of series: FLIPR Ca2+ fluorescence, nicotine-stimulated SH-SY5Y cells. In kind it is cell-based, human. The following applies: 10 µM, added 5 min prior to nicotine (30 µM). The method, then:
as §1

On to U1-macrothelitoxin-Gg1a, for which the “earliest onset of mortality” value with V. destructor mites is 16 h. The “survival/mortality of V. destructor” value is “induced topical mortality; also recorded: reduced varroa mite but not honeybee survival; also recorded: lethal to varroa mites” in the series with V. destructor mites and “significantly reduced the survival; also recorded: significantly reduced V. destructor survival” in the series on V. destructor mites (listed as sGg1a). Further, the “effect on hNaV1.5 currents” value with hNaV1.5 was “inactive”; with hNaV1.5 (listed as sGg1a), “did not significantly affect”. Moreover, the entries for the “effect on CaV2.2” value in the series on hCaV2.2 and in the series on hCaV2.2 (listed as sGg1a) were “inactive” and “did not significantly affect”, respectively. Moreover, the “inhibition of nicotine-mediated Ca2+ influx (α3 nAChRs)” value in series [1] is “inactive”.

Consider “KYCAPRKAVCNTPADCCDKSSRCAYPNYGLGYYLDSEFFGKRKICSWRL (also: bicyclic or more (positions not given here)) [Ht1a, μ-gradutoxin-Ht1a]”, for which the “earliest onset of mortality” value in the series on V. destructor mites worked out at 34 h. Further, the “survival/mortality of V. destructor” value with V. destructor mites is recorded as “induced topical mortality; also recorded: reduced varroa mite but not honeybee survival; also recorded: lethal to varroa mites”; in the series with V. destructor mites (listed as sHt1a), “significantly reduced the survival; also recorded: significantly reduced V. destructor survival”. The “effect on hNaV1.5 currents” value in the series with hNaV1.5 was “inactive”; in the series with hNaV1.5 (listed as sHt1a) it was “did not significantly affect”. Besides, the “effect on CaV2.2” value with hCaV2.2 is “inactive”; in the series with hCaV2.2 (listed as sHt1a), “did not significantly affect”. Further, the “inhibition of nicotine-mediated Ca2+ influx (α3 nAChRs)” value in series [1] is given as “partially blocked”; in series [1] (listed as sHt1a), “partial inhibition”.
